# Measurements taken from patent US9920075B2, “Triazolopyridine and triazolopyrimidine inhibitors of myeloperoxidase” (BRISTOL-MYERS SQUIBB COMPANY, priority 2014, dated 2018).
# Values joined by “and” are separate entries in the source; they are usually repeats but may differ in a detail not shown here. Equal entries are not always repeated.
# Biological target: T1, myeloperoxidase (MPO) (Homo sapiens, UniProt P05164)
# T1 sequence (P05164 49-745): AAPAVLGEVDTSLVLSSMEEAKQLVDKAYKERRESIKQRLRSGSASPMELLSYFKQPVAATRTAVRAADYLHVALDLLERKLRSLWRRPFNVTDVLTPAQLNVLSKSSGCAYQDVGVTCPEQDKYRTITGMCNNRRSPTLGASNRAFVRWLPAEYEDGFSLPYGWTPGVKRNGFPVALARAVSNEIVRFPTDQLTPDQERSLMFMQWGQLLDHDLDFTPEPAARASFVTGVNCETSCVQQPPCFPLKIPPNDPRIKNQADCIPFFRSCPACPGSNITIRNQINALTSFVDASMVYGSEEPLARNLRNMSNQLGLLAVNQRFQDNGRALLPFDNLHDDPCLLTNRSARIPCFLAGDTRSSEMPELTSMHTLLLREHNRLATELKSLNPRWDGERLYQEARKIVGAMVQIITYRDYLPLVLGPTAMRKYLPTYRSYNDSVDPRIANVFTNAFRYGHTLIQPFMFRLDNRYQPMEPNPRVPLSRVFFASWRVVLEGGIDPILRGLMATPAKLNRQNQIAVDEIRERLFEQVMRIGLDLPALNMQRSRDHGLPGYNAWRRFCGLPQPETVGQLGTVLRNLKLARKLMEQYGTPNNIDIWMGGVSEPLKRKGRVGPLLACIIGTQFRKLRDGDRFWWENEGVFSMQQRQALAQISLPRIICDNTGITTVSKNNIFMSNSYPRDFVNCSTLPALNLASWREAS
# Test: MPO peroxidation assay (Amplex Red assay)
# Assay type: biochemical
# Settings: MPO peroxidation (Amplex Red), ranges given; read-out: MPO peroxidation assay IC50 values (binned)
# Experimental: MPO Peroxidation Assay (Amplex Red Assay)
# MPO peroxidation activity was measured in 100 mM KPi (pH 7.4) by utilizing the non-fluorescent reagent Amplex Red (Invitrogen Cat. #A12222) which can be oxidized to the highly fluorescent resorufin. Amplex Red is oxidized by the peroxidase action of MPO to resorufin. […] Enzyme and compound were preincubated for ten minutes at room temperature.
# After the ten minute preincubation, 25 μL of an Amplex Red mixture containing 200 μM Amplex Red and 10 mM H2O2 was added to the plate.
# IC50 values were calculated by determining the slope of the linear portion of the kinetic trace (180-540 secs), and using that calculated slope to determine % inhibition occurring at each concentration of inhibitor using the following equation:
# [formula] where A=minimal Y value (activity level of inhibited sample), B=maximal Y value (activity level of uninhibited sample), C=Log IC50, D=Hill Slope, x=concentration of inhibitor. MPO Chlorination Assay (APF Assay)
row,IC50,Structure (SMILES)
1,60 to 150 nM,"Nc1nc(OCc2cccc3occc23)c2nn[nH]c2n1 [Example 112, 7-(Benzofuran-4-ylmethoxy)-3H-[1,2,3]triazolo[4,5-d]pyrimidin-5-amine]"
2,≤ 60 nM,"CCn1nc(C(F)(F)F)cc1COc1cc(N)nc2[nH]nnc12 [Example 19, 7-((1-Ethyl-3-(trifluoromethyl)-1H-pyrazol-5-yl)methoxy)-3H-[1,2,3]triazolo[4,5-b]pyridin-5-amine]"
3,≤ 60 nM,"CN1CCN(c2ccc(-c3cnc(COc4cc(N)nc5[nH]nnc45)c(F)c3)cn2)CC1 [Example 107, 7-((5-fluoro-6′-(4-methylpiperazin-1-yl)-[3,3′-bipyridin]-6-yl)methoxy)-3H-[1,2,3] triazolo[4,5-b]pyridin-5-amine]"
4,60 to 150 nM,"Cc1nn(C2CCNCC2)nc1COc1cc(N)nc2[nH]nnc12 [Example 68, 7-((5-Methyl-2-(piperidin-4-yl)-2H-1,2,3-triazol-4-yl)methoxy)-3H-[1,2,3]triazolo[4,5-b]pyridin-5-amine]"
5,≤ 60 nM,"Nc1cc(OCc2nc(-c3ccc(C4CC4)nc3)ccc2F)c2nn[nH]c2n1 [Example 98, 7-((6′-cyclopropyl-S-fluoro-[2,3′-bipyridin]-6-yl)methoxy)-3H-[1,2,3]triazolo[4,5-b] pyridin-5-amine]"
6,60 to 150 nM,"Nc1cc(OCc2cccc(-c3cccc(F)c3)n2)c2nn[nH]c2n1 [Example 5, 7-((6-(3-Fluorophenyl)pyridin-2-yl)methoxy)-3H-[1,2,3]triazolo[4,5-b]pyridin-5-amine]"
7,150 to 1000 nM,"Cn1cnc2cccc(COc3cc(N)nc4[nH]nnc34)c21 [Example 36, 7-((1-Methyl-1H-benzo[d]imidazol-7-yl)methoxy)-3H-[1,2,3]triazolo[4,5-b]pyridin-5-amine]"
8,≤ 60 nM,"Nc1cc(OCc2ncccc2F)c2nn[nH]c2n1 [Example 89, 7-((3-Fluoropyridin-2-yl)methoxy)-3H-[1,2,3]triazolo[4,5-b]pyridin-5-amine]"
9,≤ 60 nM,"Cn1nc(-c2ccccc2)cc1COc1cc(N)nc2[nH]nnc12 [Example 18, 7-((1-Methyl-3-phenyl-1H-pyrazol-5-yl)methoxy)-3H-[1,2,3]triazolo[4,5-b]pyridin-5-amine]"
10,60 to 150 nM,"Nc1cc(OCc2nnc3cccc(Cl)n23)c2nn[nH]c2n1 [Example 29, 7-((5-Chloro-[1,2,4]triazolo[4,3-a]pyridin-3-yl)methoxy)-3H-[1,2,3]triazolo [4,5-b]pyridin-5-amine]"
11,≤ 60 nM,"CN1CCN(c2ccc(-c3cc(COc4cc(N)nc5[nH]nnc45)nn3C)cn2)CC1 [Example 105, 7-((1-methyl-5-(6-(4-methylpiperazin-1-yl)pyridin-3-yl)-1H-pyrazol-3-yl)methoxy)-3H-[1,2,3]triazolo[4,5-b]pyridin-5-amine]"
12,60 to 150 nM,"Cc1nc(-c2ccccc2)oc1COc1cc(N)nc2[nH]nnc12 [Example 54, 7-((4-Methyl-2-phenyloxazol-5-yl)methoxy)-3H-[1,2,3]triazolo[4,5-b]pyridin-5-amine]"
13,≤ 60 nM,"Cn1nc(COc2cc(N)nc3[nH]nnc23)cc1-c1ccc(N2CCNCC2)nc1 [Example 104, 7-((1-methyl-5-(6-(piperazin-1-yl)pyridin-3-yl)-1H-pyrazol-3-yl)methoxy)-3H-[1,2,3]triazolo[4,5-b]pyridin-5-amine]"
14,≤ 60 nM,"Nc1cc(OCc2cccc3cccnc23)c2nn[nH]c2n1 [Example 7, 7-(Quinolin-8-ylmethoxy)-3H-[1,2,3]triazolo[4,5-b]pyridin-5-amine]"
15,60 to 150 nM,"Nc1nc(OCc2ccc(Oc3ccccc3)nc2)c2nn[nH]c2n1 [Example 122, 7-((6-phenoxypyridin-3-yl)methoxy)-3H-[1,2,3]triazolo[4,5-d]pyrimidin-5-amine]"
16,≤ 60 nM,"Cn1ccc(-c2ccc(F)c(COc3cc(N)nc4[nH]nnc34)n2)n1 [Example 96, 7-((3-Fluoro-6-(1-methyl-1H-pyrazol-3-yl)pyridin-2-yl)methoxy)-3H-[1,2,3]triazolo[4,5-b]pyridin-5-amine]"

row,IC50,Structure (SMILES)
1,60 to 150 nM and 150 to 1000 nM,"Nc1nc(OCc2csc(-c3cccc(Cl)c3Cl)n2)c2nn[nH]c2n1 [Example 124, 7-((2-(2,3-dichlorophenyl)thiazol-4-yl)methoxy)-3H-[1,2,3]triazolo[4,5-d] pyrimidin-5-amine]"
2,60 to 150 nM,"Nc1nc(OCc2cccnc2)c2nn[nH]c2n1 [Example 113, 7-(pyridin-3-ylmethoxy)-3H-[1,2,3] triazolo[4,5-d]pyrimidin-5-amine]"
3,≤ 60 nM,"Nc1cc(OCc2ccc3c(c2)OCO3)c2nn[nH]c2n1 [Example 1, 7-(Benzo[d][1,3]dioxol-5-ylmethoxy)-3H-[1,2,3]triazolo[4,5-b]pyridin-5-amine]"
4,≤ 60 nM,"Nc1cc(OCc2ncc(-c3ccc(N4CCNCC4)nc3)cc2F)c2nn[nH]c2n1 [Example 99, 7-((5-fluoro-6′-(piperazin-1-yl)-[3,3′-bipyridin]-6-yl)methoxy)-3H-[1,2,3] triazolo[4,5-b]pyridin-5-amine]"
5,≤ 60 nM,"Nc1cc(OCc2cccc3c2OC(F)(F)O3)c2nn[nH]c2n1 [Example 3, 7-((2,2-Difluorobenzo[d][1,3]dioxol-4-yl)methoxy)-3H-[1,2,3]triazolo[4,5-b]pyridin-5-amine]"
6,≤ 60 nM,"Nc1cc(OCc2cccc3c2OCCO3)c2nn[nH]c2n1 [Example 2, 7-((2,3-Dihydrobenzo[b][1,4]dioxin-5-yl)methoxy)-3H-[1,2,3]triazolo[4,5-b]pyridin-5-amine]"
7,60 to 150 nM,"Nc1cc(OCc2cc(-c3ccc(CO)nc3)ncc2F)c2nn[nH]c2n1 [Example 111, (4-(((5-amino-3H-[1,2,3]triazolo[4,5-b]pyridin-7-yl)oxy)methyl)-5-fluoro-[2,3′-bipyridin]-6′-yl)methanol]"
8,150 to 1000 nM,"Nc1cc(OCc2cccc3c2ncn3Cc2ccccc2)c2nn[nH]c2n1 [Example 37, 7-((1-Benzyl-1H-benzo[d]imidazol-4-yl)methoxy)-3H-[1,2,3]triazolo[4,5-b]pyridin-5-amine]"
9,150 to 1000 nM,"Nc1cc(OCc2cnc(-c3ccccc3)s2)c2nn[nH]c2n1 [Example 26, 7-((2-Phenylthiazol-5-yl)methoxy)-3H-[1,2,3]triazolo[4,5-b]pyridin-5-amine]"
10,60 to 150 nM,"Nc1nc(OCc2ccc3ncccc3c2)c2nn[nH]c2n1 [Example 115, 7-(quinolin-6-ylmethoxy)-3H-[1,2,3] triazolo[4,5-d]pyrimidin-5-amine]"
11,≤ 60 nM,"N#Cc1ccccc1-c1cc(COc2cc(N)nc3[nH]nnc23)on1 [Example 45, 2-(5-((5-Amino-3H-[1,2,3]triazolo[4,5-b]pyridin-7-yloxy)methyl)isoxazol-3-yl)benzonitrile]"
12,≤ 60 nM,"Cc1nn(C[C@@H]2C[C@H](Oc3ccccc3)CN2)nc1COc1cc(N)nc2[nH]nnc12 [Example 73, 7-((5-Methyl-2-(((2S,4S)-4-phenoxypyrrolidin-2-yl)methyl)-2H-1,2,3-triazol-4-yl)methoxy)-3H-[1,2,3]triazolo[4,5-b]pyridin-5-amine]"
13,≤ 60 nM,"Cc1nn(C2CCC(C)C2)nc1COc1cc(N)nc2[nH]nnc12 (mixture of isomers) [Example 72, 7-((5-Methyl-2-(3-methylcyclopentyl)-2H-1,2,3-triazol-4-yl)methoxy)-3H-[1,2,3]triazolo[4,5-b]pyridin-5-amine]"
14,150 to 1000 nM,"Cc1nn(CC2CCNC2)nc1COc1cc(N)nc2[nH]nnc12 (stereo not shown) [Example 69, 7-((5-Methyl-2-(pyrrolidin-3-ylmethyl)-2H-1,2,3-triazol-4-yl)methoxy)-3H-[1,2,3]triazolo[4,5-b]pyridin-5-amine]"
15,60 to 150 nM,"Nc1cc(OCc2cnn(-c3ccccn3)c2)c2nn[nH]c2n1 [Example 30, 7-((1-(Pyridin-2-yl)-1H-pyrazol-4-yl)methoxy)-3H-[1,2,3]triazolo[4,5-b]pyridin-5-amine]"
16,≤ 60 nM,"Cn1ncc2ccc(COc3cc(N)nc4[nH]nnc34)cc21 [Example 9, 7-((1-Methyl-1H-indazol-6-yl)methoxy)-3H-[1,2,3]triazolo[4,5-b]pyridin-5-amine]"

# Same assay, conditions: MPO peroxidation assay IC50 values (binned), MPO peroxidation (Amplex Red), ranges given
row,IC50,Structure (SMILES)
1,60 to 150 nM,"Nc1cc(OCc2cn(-c3ccccc3)nn2)c2nn[nH]c2n1 [Example 4, 7-((1-Phenyl-1H-1,2,3-triazol-4-yl)methoxy)-3H-[1,2,3]triazolo[4,5-b]pyridin-5-amine]"
2,≤ 60 nM,"Cc1nn(-c2ccccc2)nc1COc1cc(N)nc2[nH]nnc12 [Example 21, 7-((5-Methyl-2-phenyl-2H-1,2,3-triazol-4-yl)methoxy)-3H-[1,2,3]triazolo [4,5-b]pyridin-5-amine]"
